Source: patent publication US20250041284A1, “TREATMENT OF NEUROLOGICAL DISORDERS” (Praxis Precision Medicines, Inc., priority 2022, published 2025)
Entries after “also recorded” stand apart in the source; their conditions may differ. Read-outs that look alike come from different tables or passages of the source.

Columns and labels:
[1] = target: T1, hNaV1.6 (Homo sapiens, UniProt Q9UQD0); experiment: Apparent binding (KON) and unbinding (KOFF) rates inferred from INa inhibition kinetics; assay type: cell-based; settings: read-out: apparent KON
T1 construct: expressed in transfected cells; host or cells: HEK cells

[2] = target: T2, human NaV1.6 (Homo sapiens, UniProt Q9UQD0); experiment: Persistent (late) INa inhibition, ATX-II activated, automated patch clamp in HEK cells; assay type: cell-based; settings: for Persistent INa Hill slope: hNaV1.6 in HEK cells, ATX-II
T2 construct: HEK-293 cell lines stably expressing human NaV1.6 (NP_055006) were used; expressed in transfected cells

[3] = target: T2, human NaV1.6; experiment: Peak INa tonic block (TB), automated patch clamp in HEK cells; assay type: cell-based; settings: for Ratio to Pers. INa (Peak INa TB): peak INa TB IC50 / persistent INa IC50; for Peak INa TB Hill slope: tonic block
[4] = target: T2, human NaV1.6; experiment: Peak INa use-dependent block (UDB-10 Hz), automated patch clamp in HEK cells; assay type: cell-based; settings: for UDB preference to TB: TB IC50 / UDB IC50; for Ratio to Pers. INa (Peak INa UDB-10 Hz): UDB IC50 / persistent INa IC50; for activity dependent block of peak INa: in words, FIGS. 7A-7C; for Peak INa UDB-10 Hz Hill slope: use-dependent block 10 Hz
[5] = system: MES-induced tonic hindlimb extension in male CD-1 mice; experiment: MES acute seizure model, protection from tonic hindlimb extension (Example 9); assay type: in vivo, mouse; settings: for ED50: Mus musculus, administered dose
Procedure: Male CD-1 mice (Vital River, Beijing, China) approximately 6 weeks old were obtained for the study. Body weights were between 20.5 grams and 38.5 grams at the time the experiments were carried out. […] Food and water were available ad libitum.
Treatment was conducted using Compound 1 and 35% 2-hydroxypropyl-β-cyclodextrin (35% HPBCD, used as a negative control). Compound 1 stock solution was prepared fresh each experiment day in 35% HPBCD and protected from light. The stock solution was diluted with vehicle for lower doses.
Mice were brought to the test room at least one hour before the start of the experiment. Mice were administered valproate (VPA; 400 mg/kg, intraperitoneally); or vehicle (35% HPBCD, 10 mL/kg, intraperitoneally); or Compound 1 (0.3 mg/kg, 1 mg/kg, 3 mg/kg or 10 mg/kg, orally) 30 minutes prior to the MES test.
The electroshock apparatus was set to deliver a 50 mA square-wave stimulus, with a 0.8 second duration, a pulse width of 10 milliseconds, and a frequency of 50 Hz. A pair of custom stainless-steel electrodes were soaked in 0.2% agar, and then the subject received bilateral transauricular stimulation through ear-clip electrodes. During the stimulation, mice were manually restrained then released immediately into an observation cage where they were monitored continuously for 60 seconds by an observer blinded to treatment group.
Mice were anesthetized with CO2 and terminal plasma and brain tissue samples were collected. […] The supernatant plasma was pipetted into Eppendorf tubes.
All statistical analyses were conducted using GraphPad Prism 9.3. Means were combined and standard error was calculated using the Satterthwaite Approximation to combine standard deviations. […] ED50 and EC50 values were calculated from these fit curves.

[6] = target: T1, hNaV1.6; experiment: Peak INa voltage-dependent block (VDB), automated patch clamp in HEK cells; assay type: cell-based; settings: for Ratio to Pers. INa (Peak INa VDB): VDB IC50 / persistent INa IC50; for Peak INa VDB Hill slope: voltage-dependent block
[7] = system: psychomotor seizures induced by 6-Hz electrical stimulation in wild-type CD-1 mice; experiment: 6-Hz psychomotor seizure model; assay type: in vivo, mouse; settings: 600 mg/kg intraperitoneally
Source text: This study evaluated the efficacy of Compound 1 in attenuating psychomotor seizures induced by 6-Hz electrical stimulation at two different stimulation intensities (32 and 44 mA) in wild-type CD-1 mice. Psychomotor seizures are defined as the expression of at least one of the following behaviors: stun/immobility, forelimb clonus, straub tail or lateral head movement within 30 seconds of the stimulus. Protection is defined as a complete absence of the above behaviors within 30 seconds of the stimulus. Doses of Compound 1 used were 1 mg/kg, 3 mg/kg and 6 mg/kg administered orally. Valproate (600 mg/kg, administered intraperitoneally) was used as a positive control.
Male CD-1 mice (Charles River Laboratories; St. Constant, Quebec, CAN) were used for the study. Body weights at the time the experiment was carried out were 30-40 grams. The mice were group-housed in polycarbonate cages according to standard operating procedures. Animals were maintained on a 12-hour light/12 hour dark cycle, with all experimental activities occurring during the light phase. Food and water were available ad libitum. Mice acclimated to the test facility for at least 72 hours prior to testing.
Treatment was conducted using Compound 1 and 35% 2-hydroxypropyl-β-cyclodextrin (35% HPBCD, used as a negative control). Compound 1 stock solution was prepared fresh each experiment day in 35% HPBCD. […] Valproate was prepared fresh each experiment day in a vehicle of saline and dosed at 10 mL/kg.
Mice were administered vehicle (35% HPBCD), a single dose of Compound 1 (1 mg/kg, 3 mg/kg or 6 mg/kg) or valproate (600 mg/kg). Vehicle and Compound 1 were administered via oral gavage 30 minutes prior to […]. Valproate was administered as an intraperitoneal injection 60 minutes prior to the electrical stimulus.
Immediately prior to conducting the 6-Hz seizure test, a brief neurological assessment was performed. Each animal was visually assessed and received a score from 0 to 3 according to the following scoring system::neurological score of 0 corresponds to a normal status; neurological score of 1 corresponds to a modest decrease in spontaneous activity; neurological score of 2 corresponds to a marked decrease in spontaneous activity; and neurological score of 3 corresponds to loss of righting reflex.
Corneal electrodes moistened with saline (ECT unit 57800; Ugo Basile) were used to deliver the electrical stimulus (6-Hz, 0.2 millisecond pulse width, 3 seconds duration). The current delivered was either 32 mA or 44 mA. Immediately after the electrical stimulus, each mouse was monitored continuously for 30 seconds by an observer blinded to the treatment group. […] Mice were scored for the presence or absence of each seizure behavior, with a maximum total score of 4. […] At the end of the 6-Hz seizure test, plasma and brain samples were collected.
Mice were anesthetized with isoflurane, whole blood was collected via cardiac puncture and brains were harvested. Whole blood was collected in potassium EDTA tubes and centrifuged at ˜3300 g for 5 minutes at 4° C. to isolate plasma. Plasma and brain samples were stored at −80° C. and analyzed to determine levels of Compound 1.
All statistical analyses were conducted using GraphPad Prism 9.3. Seizure scores were compared using Kruskal-Wallis test, followed by Dunn's post hoc and p<0.05 was considered statistically significant.

[8] = 400 mg/kg intraperitoneally, listed as valproate

T2 sequence (Q9UQD0 whole entry): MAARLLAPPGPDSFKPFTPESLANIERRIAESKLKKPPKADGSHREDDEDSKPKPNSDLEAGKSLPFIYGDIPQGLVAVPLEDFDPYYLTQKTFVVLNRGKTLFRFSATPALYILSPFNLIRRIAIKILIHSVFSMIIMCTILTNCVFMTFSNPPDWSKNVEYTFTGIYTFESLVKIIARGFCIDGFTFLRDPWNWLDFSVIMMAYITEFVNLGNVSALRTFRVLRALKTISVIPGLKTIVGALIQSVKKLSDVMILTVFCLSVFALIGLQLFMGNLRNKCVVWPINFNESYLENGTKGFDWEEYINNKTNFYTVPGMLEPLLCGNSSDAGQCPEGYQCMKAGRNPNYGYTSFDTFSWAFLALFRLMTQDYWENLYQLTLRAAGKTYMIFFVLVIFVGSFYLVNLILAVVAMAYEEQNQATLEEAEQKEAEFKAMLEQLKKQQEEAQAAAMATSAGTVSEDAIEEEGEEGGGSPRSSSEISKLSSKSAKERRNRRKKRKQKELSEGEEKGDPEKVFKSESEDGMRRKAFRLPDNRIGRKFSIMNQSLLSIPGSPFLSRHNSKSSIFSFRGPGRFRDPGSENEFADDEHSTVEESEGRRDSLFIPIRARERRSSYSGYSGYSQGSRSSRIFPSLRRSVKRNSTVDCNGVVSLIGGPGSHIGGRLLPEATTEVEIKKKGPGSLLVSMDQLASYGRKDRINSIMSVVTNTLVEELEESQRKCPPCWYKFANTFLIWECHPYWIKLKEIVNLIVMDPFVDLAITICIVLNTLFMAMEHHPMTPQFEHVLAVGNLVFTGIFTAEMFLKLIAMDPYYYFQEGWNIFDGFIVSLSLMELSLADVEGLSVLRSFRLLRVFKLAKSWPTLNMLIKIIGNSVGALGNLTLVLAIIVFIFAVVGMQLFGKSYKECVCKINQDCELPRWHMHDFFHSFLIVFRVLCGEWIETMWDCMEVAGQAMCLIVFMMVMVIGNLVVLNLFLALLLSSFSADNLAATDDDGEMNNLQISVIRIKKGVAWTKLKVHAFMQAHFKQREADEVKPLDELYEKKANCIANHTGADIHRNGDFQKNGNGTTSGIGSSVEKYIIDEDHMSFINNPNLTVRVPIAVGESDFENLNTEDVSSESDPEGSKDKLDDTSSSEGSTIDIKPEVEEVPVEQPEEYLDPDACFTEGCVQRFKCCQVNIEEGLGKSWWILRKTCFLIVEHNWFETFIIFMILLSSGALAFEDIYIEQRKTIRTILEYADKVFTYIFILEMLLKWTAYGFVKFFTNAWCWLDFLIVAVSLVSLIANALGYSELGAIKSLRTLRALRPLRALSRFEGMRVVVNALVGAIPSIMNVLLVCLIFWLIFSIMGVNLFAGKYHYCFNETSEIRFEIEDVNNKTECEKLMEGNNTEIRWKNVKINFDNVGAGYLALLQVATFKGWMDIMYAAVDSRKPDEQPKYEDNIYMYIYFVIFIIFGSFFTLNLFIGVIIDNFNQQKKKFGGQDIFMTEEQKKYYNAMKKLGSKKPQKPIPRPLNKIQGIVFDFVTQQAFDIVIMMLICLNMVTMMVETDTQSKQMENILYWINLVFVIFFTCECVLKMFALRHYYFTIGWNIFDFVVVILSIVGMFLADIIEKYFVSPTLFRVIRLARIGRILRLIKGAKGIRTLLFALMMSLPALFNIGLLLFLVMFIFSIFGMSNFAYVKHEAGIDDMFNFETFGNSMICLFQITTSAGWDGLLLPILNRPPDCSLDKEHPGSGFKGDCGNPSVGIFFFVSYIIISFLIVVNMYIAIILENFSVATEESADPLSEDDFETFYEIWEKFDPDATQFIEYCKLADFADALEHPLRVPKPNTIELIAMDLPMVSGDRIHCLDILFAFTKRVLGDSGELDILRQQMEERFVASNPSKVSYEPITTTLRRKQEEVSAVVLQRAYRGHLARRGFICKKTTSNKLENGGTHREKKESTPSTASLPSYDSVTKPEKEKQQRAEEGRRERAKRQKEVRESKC
T1 sequence (Q9UQD0 whole entry): as above

Row | SMILES | Persistent INa Hill slope [2] | Ratio to Pers. INa (Peak INa TB) [3] | Peak INa TB Hill slope [3] | Ratio to Pers. INa (Peak INa UDB-10 Hz) [4] | Peak INa UDB-10 Hz Hill slope [4] | ED50 [5] [mg/kg] | Ratio to Pers. INa (Peak INa VDB) [6] | Peak INa VDB Hill slope [6] | other results
1 | NC(=O)N1c2ccccc2C=Cc2ccccc21 [Carbamazepine, carbamazepine] | (1.1) | 30 | (1.0) | 18 | (0.9) | 5.4 | 0.6 | (0.9) | kon ([1]; development of inhibition of hNaV1.6 INa): 11000 M⁻¹ s⁻¹; preference for persistent INa relative to peak INa ([2]; in words, FIGS. 1A-1D): no preference for persistent INa; UDB preference to TB [4]: no UDB observed; activity dependent block of peak INa [4]: minimal activity dependent block of peak INa
2 | NC(=O)O[C@@H](Cn1ncnn1)c1ccccc1Cl [Cenobamate, cenobamate] | (1.1) | 24 | (1.1) | 11 | (0.7) | 4.1 | 0.9 | (0.9) | kon [1]: 19000 M⁻¹ s⁻¹; UDB preference to TB [4]: 2.3 ×
3 | COC[C@@H](NC(C)=O)C(=O)NCc1ccccc1 [Lacosamide, lacosamide] | (0.9) |  |  | 0.8 | (1.3) |  | 0.3 | (1.2) | 
4 | Nc1nnc(-c2cccc(Cl)c2Cl)c(N)n1 [Lamotrigine, lamotrigine] | (1.0) |  | (0.8) |  | (1.0) | 3.8 |  | (0.9) | activity dependent block of peak INa [4]: minimal activity dependent block of peak INa
5 | NC(=O)N1c2ccccc2CC(=O)c2ccccc21 [Oxcarbazepine, oxcarbazepine] | (1.0) | 8 | (1.7) |  |  |  | 0.3 | (1.1) | 
6 | O=C1NC(=O)C(c2ccccc2)(c2ccccc2)N1 [Phenytoin, phenytoin] | (0.8) |  |  | 15 | (0.6) |  | 0.8 | (1.0) | 
7 | CCCC(CCC)C(=O)O [Valproic acid] |  |  |  |  |  |  |  |  | neurological score (average) [7]: 1.2; spontaneous activity [7]: modest to marked decrease in spontaneous activity; sedation before MES test ([5]; 400 mg/kg intraperitoneally, listed as Valproate): mild to moderate sedation; protection against MES-induced hindlimb extension [5, 8]: all mice n=24 were seizure-free; also recorded: protected mice from MES-induced tonic hindlimb extension; sedation before MES test [5, 8]: nearly all valproate-treated mice showed mild to moderate sedation
8 | Cc1cc(N2CCc3cc(F)ccc3C2)cc(C)c1NC(=O)CC(C)(C)C [XEN1101] |  |  |  |  |  | 3.9 |  |  | 
